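Method: 48-hour compound exposure of cells in 96-well plates, five concentrations, linear interpolation of endpoints. At the GI50, growth is halved.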 Calls of active or inactive are those of the source. Rule as the data show it: active = GI50 up to about 1.1 µM and inactive = higher.
Key:
Assay in all cases: inhibition of tumour cell growth, NCI panel, 48 h
[1] = system: A498
[2] = system: ACHN
[3] = system: CAKI-1
[4] = system: HCT-116
[5] = system: HT-29
[6] = system: Hs-578T
[7] = system: K562
[8] = system: KM12
[9] = system: MDA-MB-231
[10] = system: OVCAR-4
[11] = system: RPMI-8226
[12] = system: SK-MEL-28
[13] = system: SK-MEL-5
[14] = system: SR
[15] = system: U-251
[16] = system: UO-31
[17] = system: Malme-3M
[18] = system: NCI-H460

Structure (SMILES) | GI50 [1] | GI50 [2] | GI50 [3] | GI50 [4] | GI50 [5] | GI50 [6] | GI50 [7] | GI50 [8] | GI50 [9] | GI50 [10] | GI50 [11] | GI50 [12] | GI50 [13] | GI50 [14] | GI50 [15] | GI50 [16] | GI50 [17] | GI50 [18]
CC1(C)C(CC(=O)O)CCCC1CC(=O)O (configuration not stated) | > 100 µM (inactive) | > 100 µM (inactive) | > 100 µM (inactive) | > 100 µM (inactive) | > 100 µM (inactive) | > 100 µM (inactive) | > 100 µM (inactive) | > 100 µM (inactive) | > 100 µM (inactive) | > 100 µM (inactive) | > 100 µM (inactive) | > 100 µM (inactive) | > 100 µM (inactive) | > 100 µM (inactive) | > 100 µM (inactive) | > 100 µM (inactive) | – | –
O=C(O)CCNCC(=O)O | > 100 µM (inactive) | > 100 µM (inactive) | > 100 µM (inactive) | > 100 µM (inactive) | > 100 µM (inactive) | > 100 µM (inactive) | > 100 µM (inactive) | > 100 µM (inactive) | > 100 µM (inactive) | – | > 100 µM (inactive) | > 100 µM (inactive) | > 100 µM (inactive) | > 100 µM (inactive) | > 100 µM (inactive) | > 100 µM (inactive) | > 100 µM (inactive) | > 100 µM (inactive)
O=[N+]([O-])c1ccc(/C(=N/c2ccccc2)SS/C(=N\c2ccccc2)c2ccc([N+](=O)[O-])o2)o1 | – | 1.91 µM (inactive) | 1.97 µM (inactive) | 1.5 µM (inactive) | 1.35 µM (inactive) | 2.32 µM (inactive) | 1.34 µM (inactive) | 1.68 µM (inactive) | 2.74 µM (inactive) | 1.47 µM (inactive) | – | 2.4 µM (inactive) | 5.78 µM (inactive) | 0.425 µM (active) | 0.955 µM (active) | 1.47 µM (inactive) | 2.31 µM (inactive) | 1.33 µM (inactive)
COc1ccc(C[N+]23C(CC[C@H]2c2ccccc2)CC[C@H]3c2ccccc2)cc1 (some centres not stated) | 39.7 µM (inactive) | 67.6 µM (inactive) | 75.5 µM (inactive) | 24.5 µM (inactive) | 12.2 µM (inactive) | 27.7 µM (inactive) | 6.46 µM (inactive) | 10.4 µM (inactive) | 28.2 µM (inactive) | 13.1 µM (inactive) | 2.8 µM (inactive) | 20.3 µM (inactive) | 4.43 µM (inactive) | 15.7 µM (inactive) | 18.6 µM (inactive) | 31.9 µM (inactive) | 11.4 µM (inactive) | –
CC1=C(/C=C/C(C)=C/C=C/C(C)=C/C(=O)OCC2OC(n3cc(F)c(=O)[nH]c3=O)CC2OC(=O)/C=C(C)/C=C/C=C(C)/C=C/C2=C(C)CCCC2(C)C)C(C)(C)CCC1 (configuration not stated) | – | 0.418 µM (active) | 0.959 µM (active) | 2.82 µM (inactive) | 11.2 µM (inactive) | 9.25 µM (inactive) | 4.66 µM (inactive) | 23.9 µM (inactive) | 30.1 µM (inactive) | > 32.1 µM (inactive) | 0.796 µM (active) | 20.9 µM (inactive) | 3.08 µM (inactive) | 0.794 µM (active) | 4.15 µM (inactive) | 0.94 µM (active) | 7.43 µM (inactive) | 0.0659 µM (active)
OCC(O)CNc1ncnc2ccccc12 (configuration not stated) | > 100 µM (inactive) | > 100 µM (inactive) | > 100 µM (inactive) | > 100 µM (inactive) | > 100 µM (inactive) | > 100 µM (inactive) | > 100 µM (inactive) | > 100 µM (inactive) | > 100 µM (inactive) | > 100 µM (inactive) | > 100 µM (inactive) | > 100 µM (inactive) | > 100 µM (inactive) | – | > 100 µM (inactive) | > 100 µM (inactive) | > 100 µM (inactive) | > 100 µM (inactive)
CC(C)CCC[C@@H](C)C1CCC2[C@@H]3CCC4CC(CCC=C(c5cc(Cl)c(OC(=O)c6ccccc6)c(C(=O)O)c5)c5cc(Cl)c(OC(=O)c6ccccc6)c(C(=O)O)c5)CC[C@]4(C)C3CC[C@@]21C (some centres not stated) | 52.5 µM (inactive) | > 100 µM (inactive) | > 100 µM (inactive) | > 100 µM (inactive) | > 100 µM (inactive) | > 100 µM (inactive) | > 100 µM (inactive) | > 100 µM (inactive) | 12.6 µM (inactive) | > 100 µM (inactive) | > 100 µM (inactive) | – | 28.8 µM (inactive) | – | > 100 µM (inactive) | > 100 µM (inactive) | 64.7 µM (inactive) | > 100 µM (inactive)
Cn1cc(NC(=O)Nc2cc(C(=O)Nc3cc(C(=O)Nc4cc(S(=O)(=O)O)c5cc(S(=O)(=O)O)cc(S(=O)(=O)O)c5c4)n(C)c3)n(C)c2)cc1C(=O)Nc1cc(C(=O)Nc2cc(S(=O)(=O)O)c3cc(S(=O)(=O)O)cc(S(=O)(=O)O)c3c2)n(C)c1 | – | > 100 µM (inactive) | – | > 100 µM (inactive) | > 100 µM (inactive) | > 100 µM (inactive) | > 100 µM (inactive) | > 100 µM (inactive) | > 100 µM (inactive) | > 100 µM (inactive) | > 100 µM (inactive) | > 100 µM (inactive) | > 100 µM (inactive) | > 100 µM (inactive) | > 100 µM (inactive) | 78.5 µM (inactive) | > 100 µM (inactive) | > 100 µM (inactive)
CC(=O)Nc1ccc(C(=O)N[C@@H]2C(=O)N3[C@@H]2SC(C)(C)[C@@H]3C(=O)O)cn1 | > 100 µM (inactive) | > 100 µM (inactive) | > 100 µM (inactive) | > 100 µM (inactive) | > 100 µM (inactive) | > 100 µM (inactive) | > 100 µM (inactive) | > 100 µM (inactive) | > 100 µM (inactive) | > 100 µM (inactive) | > 100 µM (inactive) | > 100 µM (inactive) | > 100 µM (inactive) | – | > 100 µM (inactive) | > 100 µM (inactive) | > 100 µM (inactive) | > 100 µM (inactive)
CC(C)(C)OC(=O)Cn1ncn(NC(=O)Cc2ccccc2)c1=S | > 10 µM (inactive) | > 10 µM (inactive) | > 10 µM (inactive) | > 10 µM (inactive) | > 10 µM (inactive) | > 10 µM (inactive) | > 10 µM (inactive) | > 10 µM (inactive) | > 10 µM (inactive) | > 10 µM (inactive) | – | > 10 µM (inactive) | > 10 µM (inactive) | > 10 µM (inactive) | > 10 µM (inactive) | > 10 µM (inactive) | > 10 µM (inactive) | > 10 µM (inactive)
Cc1cc(=O)[nH]c2cc(NC(=O)C(C)NC(=O)C(C)NC(=O)C(C)NC(=O)OC(C)(C)C)ccc12 (configuration not stated) | > 15 µM (inactive) | > 15 µM (inactive) | > 15 µM (inactive) | > 15 µM (inactive) | > 15 µM (inactive) | > 15 µM (inactive) | > 15 µM (inactive) | > 15 µM (inactive) | > 15 µM (inactive) | > 15 µM (inactive) | – | > 15 µM (inactive) | > 15 µM (inactive) | > 15 µM (inactive) | > 15 µM (inactive) | > 15 µM (inactive) | – | > 15 µM (inactive)
O=C(O)c1ccccc1Sc1ccccc1[N+](=O)[O-] | > 100 µM (inactive) | > 100 µM (inactive) | > 100 µM (inactive) | > 100 µM (inactive) | > 100 µM (inactive) | > 100 µM (inactive) | > 100 µM (inactive) | > 100 µM (inactive) | > 100 µM (inactive) | > 100 µM (inactive) | > 100 µM (inactive) | > 100 µM (inactive) | > 100 µM (inactive) | – | > 100 µM (inactive) | > 100 µM (inactive) | > 100 µM (inactive) | > 100 µM (inactive)
O=C(/C=C/c1ccccc1)CCN1CCN(CCC(=O)/C=C/c2ccccc2)CC1 | 18.9 µM (inactive) | 16 µM (inactive) | 17.2 µM (inactive) | 2.16 µM (inactive) | 14.3 µM (inactive) | 10.4 µM (inactive) | 3.97 µM (inactive) | 4.82 µM (inactive) | 5.5 µM (inactive) | 16.5 µM (inactive) | > 100 µM (inactive) | 14.2 µM (inactive) | 14.7 µM (inactive) | – | 16.7 µM (inactive) | 16.9 µM (inactive) | 16.2 µM (inactive) | 15.2 µM (inactive)
S=c1[nH]c2ccc(Br)cc2c(=S)s1 | – | 22.2 µM (inactive) | 21.8 µM (inactive) | 21.5 µM (inactive) | 24.4 µM (inactive) | 40.5 µM (inactive) | 29.6 µM (inactive) | 29.4 µM (inactive) | 22.8 µM (inactive) | 10.8 µM (inactive) | 29.2 µM (inactive) | 52.7 µM (inactive) | 16.5 µM (inactive) | 38.5 µM (inactive) | 22.9 µM (inactive) | 22.1 µM (inactive) | 33.3 µM (inactive) | 22.1 µM (inactive)
O=C1C(Br)=CC2(C=C1Br)CCNC1=C2C(=O)c2ncccc2C1=O | – | 0.56 µM (active) | 1.61 µM (inactive) | 0.634 µM (active) | 1.99 µM (inactive) | 1.27 µM (inactive) | 0.266 µM (active) | 1.25 µM (inactive) | 1.75 µM (inactive) | 1.22 µM (inactive) | 0.621 µM (active) | 0.443 µM (active) | 0.533 µM (active) | 0.457 µM (active) | 1.31 µM (inactive) | 1.07 µM (active) | 1.09 µM (active) | 0.308 µM (active)
O=C(O)CNc1ccc2c(c1)Cc1cc(Br)ccc1-2 | 22 µM (inactive) | 33.1 µM (inactive) | 19.5 µM (inactive) | 18.5 µM (inactive) | 27.1 µM (inactive) | 4.65 µM (inactive) | 9.29 µM (inactive) | 9.57 µM (inactive) | 19.7 µM (inactive) | 20.1 µM (inactive) | 19.9 µM (inactive) | 31.3 µM (inactive) | 6.55 µM (inactive) | – | 26.6 µM (inactive) | 36 µM (inactive) | 20.6 µM (inactive) | 21.8 µM (inactive)
